Values of other authors in patent publication US11793802B2, “Treatment of acute myeloid leukemia (AML) with venetoclax failure” (Sumitomo Pharma Oncology, Inc., priority 2019, dated 2023).

Assays:
[1] = test system: hematological cancers, including AML; details: patients treated with venetoclax

CN1CC[C@H](c2c(OP(=O)(O)O)cc(O)c3c(=O)cc(-c4ccccc4Cl)oc23)[C@H](O)C1 [Formula (I-b)]
oral bioavailability: orally bioavailable

Nc1ncn([C@@H]2O[C@H](CO)[C@@H](O)[C@H]2O)c(=O)n1 [azacitidine]
effect on MCL-1 protein levels in blasts (MCL-1 protein): reduce MCL-1 protein levels

CC1(C)CCC(CN2CCN(c3ccc(C(=O)NS(=O)(=O)c4ccc(NCC5CCOCC5)c([N+](=O)[O-])c4)c(Oc4cnc5[nH]ccc5c4)c3)CC2)=C(c2ccc(Cl)cc2)C1 [venetoclax]
patients demonstrated complete remission [1]: 8-20%
patients showed no response [1]: 20-30%
patients showed disease progression ([1]; after 18 months): ~50%
